Measured values as given in patent US11033577B2, “Polymer conjugate of hexa-coordinated platinum complex” (priority 2015, dated 2021).

Legend:
[1] = Maximum tolerable dose (MTD dose) in nude mice; format: in vivo, BALB/cA-nu/nu mouse; conditions: administered once, caudal vein, dose in terms of drug
Protocol: Human stomach cancer 4-1ST was collected subcutaneously from a nude mouse and was finely cut into blocks each measuring about 3 mm on each side. The tumor blocks thus obtained were subcutaneously transplanted into the dorsal side of nude mice using a trocar. On the 15th day after transplantation, where the average tumor volume had reached about 100 to 200 mm^3, various drugs were administered through the caudal vein. The use and dose (in terms of drug) of the various administered drugs are as follows. In regard to the Example 1 compound, the compound was dissolved in a 5% glucose injectable solution, and the solution was administered once at a dose of 25 mg/kg or 12.5 mg/kg. In regard to the Example 2 compound, the compound was dissolved in a 5% glucose injectable solution, and the solution was administered once at a dose of 25 mg/kg or 12.5 mg/kg. In regard to the Example 3 compound, the compound was dissolved in a 5% glucose injectable solution, and the solution was administered once at a dose of 20 mg/kg or 10 mg/kg. In regard to the Example 4 compound, the compound was dissolved in a 5% glucose injectable solution, and the solution was administered once at a dose of 20 mg/kg or 10 mg/kg. In regard to the Example 5 compound, the compound was dissolved in a 5% glucose injectable solution, and the solution was administered once at a dose of 20 mg/kg or 10 mg/kg. As a control drug, l-OHP was administered once at a dose of 20 mg/kg, and cisplatin was administered once at a dose of 10 mg/kg. Regarding the amounts of administration of l-OHP and cisplatin and the high amounts of administration of the various Example compounds, the maximum tolerable doses (MTD doses) were employed for all of the compounds. After the administration, the major axis (L) and the minor axis (W) of the tumor were measured over time using calipers, and the tumor volume (L×W×W×0.5) was calculated. The test was performed by employing four animals per group for all of a non-administered group as well as various drug-administered groups. During the period from the initiation of administration to the 21st day after administration, the relative tumor volume (T/C (%)) of each drug-administered group based on the relative tumor volume of a non-drug-administered group as 100 was calculated by the following formula as an index for the antitumor effect. T/C(%)=Relative tumor volume of administered group/relative tumor volume of non-administered group×100 Formula: […]
Human stomach cancer 4-1ST was collected subcutaneously from a nude mouse and was cut into blocks each measuring about 3 mm on each side. The tumor blocks thus obtained were transplanted subcutaneously on the dorsal side of nude mice using a trocar. On the 17th day after transplantation, where the average tumor volume had reached about 100 to 200 mm^3, various drugs were administered through the caudal vein. The use and dose (in terms of drug) of the various administered drugs are as follows. In regard to the Example 11 compound, the compound was dissolved in a 5% glucose injectable solution, and the solution was administered once at a dose of 15 mg/kg or 7.5 mg/kg. In regard to the Example 12 compound, the compound was dissolved in a 5% glucose injectable solution, and the solution was administered once at a dose of 30 mg/kg or 15 mg/kg. As a control drug, l-OHP was administered once at a dose of 18 mg/kg, and cisplatin was administered once at a dose of 10 mg/kg. Regarding the amounts of administration of l-OHP and cisplatin and the high amounts of administration of the various Example compounds, the maximum tolerable doses (MTD doses) were employed for all of the compounds. After the administration, the major axis (L) and the minor axis (W) of the tumor were measured over time using calipers, and the tumor volume (L×W×W×0.5) was calculated. The test was performed by employing four animals per group for all of a non-administered group as well as various drug-administered groups. […]

[2] = Body weight of mice in Antitumor Test 2; format: in vivo; conditions: 18 mg/kg once, caudal vein
Protocol: Human stomach cancer 4-1ST was collected subcutaneously from a nude mouse and was cut into blocks each measuring about 3 mm on each side. The tumor blocks thus obtained were transplanted subcutaneously on the dorsal side of nude mice using a trocar. On the 17th day after transplantation, where the average tumor volume had reached about 100 to 200 mm^3, various drugs were administered through the caudal vein. The use and dose (in terms of drug) of the various administered drugs are as follows. In regard to the Example 11 compound, the compound was dissolved in a 5% glucose injectable solution, and the solution was administered once at a dose of 15 mg/kg or 7.5 mg/kg. In regard to the Example 12 compound, the compound was dissolved in a 5% glucose injectable solution, and the solution was administered once at a dose of 30 mg/kg or 15 mg/kg. As a control drug, l-OHP was administered once at a dose of 18 mg/kg, and cisplatin was administered once at a dose of 10 mg/kg. Regarding the amounts of administration of l-OHP and cisplatin and the high amounts of administration of the various Example compounds, the maximum tolerable doses (MTD doses) were employed for all of the compounds. After the administration, the major axis (L) and the minor axis (W) of the tumor were measured over time using calipers, and the tumor volume (L×W×W×0.5) was calculated. The test was performed by employing four animals per group for all of a non-administered group as well as various drug-administered groups. During the period from the initiation of administration to the 21st day after administration, the relative tumor volume (T/C (%)) of each drug-administered group based on the relative tumor volume of a non-drug-administered group as 100 was calculated by the following formula as an index for the antitumor effect. T/C(%)=Relative tumor volume of administered group/relative tumor volume of non-administered group×100 Formula: […]
After the administration, the body weights of the mice were measured over time. During the period from the initiation of administration to the 21st day after administration, the changes in the relative body weight based on the body weight on the day of initiation of administration as 1 are presented in Table 5.

N.N.[Cl][Pt][Cl] [Cisplatin, cisplatin]
maximum tolerable dose (MTD dose) ([1]; Antitumor Test 1): 10 mg/kg
maximum tolerable dose (MTD dose) ([1]; Antitumor Test 2): 10 mg/kg
maximum tolerable dose (MTD dose) ([1]; Antitumor Test 3): 10 mg/kg

O=C1[O][Pt]2([NH][C@@H]3CCCC[C@H]3[NH]2)[O]C1=O [l-OHP, oxaliplatin]
maximum tolerable dose (MTD dose) ([1]; Antitumor Test 1): 20 mg/kg
maximum tolerable dose (MTD dose) ([1]; Antitumor Test 2): 18 mg/kg
maximum tolerable dose (MTD dose) ([1]; Antitumor Test 3): 18 mg/kg
Relative body weight in numbers of days after administration ([2]; day 0): 1.00
Relative body weight in numbers of days after administration ([2]; day 4): 0.78
Relative body weight in numbers of days after administration ([2]; day 7): 0.83
Relative body weight in numbers of days after administration ([2]; day 11): 0.93
Relative body weight in numbers of days after administration ([2]; day 14): 1.03
Relative body weight in numbers of days after administration ([2]; day 18): 1.09
Relative body weight in numbers of days after administration ([2]; day 21): 1.05
